Reference: patent US4996217A, “Pyridyl-substituted imidazoles, compositions containing same and methods of use thereof” (Tanabe Seiyaku Company, Ltd., priority 1986, dated 1991)

test system: gastrin-induced gastric acid secretion; experiment: effect on gastrin-induced gastric acid secretion, oral administration to rats; format: in vivo; settings: dose of 30 mg/kg

| Compound | decrease in gastric acid secretion as compared with non-administered group of rats |
| --- | --- |
| CCN(CC)c1ccccc1C[S+]([O-])c1nc2c(n1-c1ccccn1)CCC2 (stereo not drawn) [1,4,5,6-tetrahydro-1-(2-pyridyl)-2-(2-(diethylamino)benzylsulfinyl)cyclopenta(d)imidazole] | more than 70% |
| [O-][S+](Cc1ccccc1-n1cccc1)c1nccn1-c1ccccn1 (stereo not drawn) [1-(2-pyridyl)-2-(2-(1-pyrrolyl)-benzylsulfinyl)imidazole] | more than 70% |
| Cc1cccnc1-n1ccnc1[S+]([O-])Cc1ccccc1N(C)C (stereo not drawn) [1-(3-methyl-2-pyridyl)-2-(2-(dimethylamino)benzylsulfinyl)imidazole] | more than 70% |

molecular target: T1, H+/K+ ATPase (Sus scrofa, UniProt P19156); experiment: effect on the enzyme activity of H+/K+ ATPase prepared from porcine gastric mucosa; format: biochemical; settings: read-out: IC50 (concentration required to induce 50% inhibition of H+/K+ ATPase enzymatic activity)
T1 construct: prepared from the porcine gastric mucosa; from tissue; host or cells: porcine gastric mucosa
T1 sequence (P19156 2-1034 limits assumed): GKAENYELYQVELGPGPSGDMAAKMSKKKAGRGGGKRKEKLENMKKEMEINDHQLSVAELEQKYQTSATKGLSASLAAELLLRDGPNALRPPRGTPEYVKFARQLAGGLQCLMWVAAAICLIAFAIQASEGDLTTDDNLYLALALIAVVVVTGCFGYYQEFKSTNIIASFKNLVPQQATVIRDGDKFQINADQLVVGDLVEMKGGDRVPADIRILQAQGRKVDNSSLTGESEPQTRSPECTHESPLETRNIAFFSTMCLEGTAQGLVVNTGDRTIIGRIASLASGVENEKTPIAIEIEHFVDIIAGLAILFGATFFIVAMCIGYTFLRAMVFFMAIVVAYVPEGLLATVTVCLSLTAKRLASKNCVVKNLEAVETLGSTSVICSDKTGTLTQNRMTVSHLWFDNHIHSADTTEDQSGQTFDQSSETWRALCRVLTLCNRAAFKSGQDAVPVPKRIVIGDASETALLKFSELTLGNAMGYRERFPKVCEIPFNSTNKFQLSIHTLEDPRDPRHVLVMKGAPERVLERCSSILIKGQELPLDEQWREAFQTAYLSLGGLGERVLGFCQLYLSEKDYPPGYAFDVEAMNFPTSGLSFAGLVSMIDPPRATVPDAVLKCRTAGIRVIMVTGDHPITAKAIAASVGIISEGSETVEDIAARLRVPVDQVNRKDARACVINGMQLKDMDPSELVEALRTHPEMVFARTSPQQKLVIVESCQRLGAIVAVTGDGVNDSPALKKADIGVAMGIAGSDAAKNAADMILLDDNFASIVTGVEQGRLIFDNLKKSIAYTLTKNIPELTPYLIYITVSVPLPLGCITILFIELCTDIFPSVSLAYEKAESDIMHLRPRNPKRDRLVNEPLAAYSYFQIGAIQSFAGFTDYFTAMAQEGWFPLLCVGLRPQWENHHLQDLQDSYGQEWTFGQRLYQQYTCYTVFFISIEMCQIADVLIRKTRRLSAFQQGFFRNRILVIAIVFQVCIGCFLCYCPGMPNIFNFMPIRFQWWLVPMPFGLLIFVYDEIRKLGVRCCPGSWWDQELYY
T1 sequence (P18434 whole entry partner): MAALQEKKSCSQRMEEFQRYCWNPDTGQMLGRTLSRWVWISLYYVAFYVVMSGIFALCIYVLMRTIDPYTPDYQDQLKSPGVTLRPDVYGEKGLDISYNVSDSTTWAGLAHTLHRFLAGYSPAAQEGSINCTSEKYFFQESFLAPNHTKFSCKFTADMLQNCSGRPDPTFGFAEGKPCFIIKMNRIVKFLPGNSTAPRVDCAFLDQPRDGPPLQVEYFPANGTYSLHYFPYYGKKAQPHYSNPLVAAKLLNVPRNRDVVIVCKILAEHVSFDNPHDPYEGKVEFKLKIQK

| IC50 [µM] | Compound |
| --- | --- |
| ~10 | CCN(CC)c1ccccc1C[S+]([O-])c1nc2c(n1-c1ccccn1)CCC2 (stereo not drawn) [1,4,5,6-tetrahydro-1-(2-pyridyl)-2-(2-(diethylamino)benzylsulfinyl)cyclopenta(d)imidazole] |
| < 10 | [O-][S+](Cc1ccccc1NC1CCCCC1)c1nccn1-c1ccccn1 (stereo not drawn) [1-(2-pyridyl)-2-(2-(cyclohexylamino)benzylsulfinyl)imidazole] |
| < 10 | CCN(CC)c1ccccc1C[S+]([O-])c1nccn1-c1cc(OC)cc(C)n1 (stereo not drawn) [1-(4-methoxy-6-methyl-2-pyridyl)-2-(2-(diethylamino)benzylsulfinyl)imidazole] |
